Data reported in patent publication US20210315893A1 (Galapagos NV, priority 2017, published 2021).

Columns and labels:
[1] = target: T1, S1PR2 (Homo sapiens, UniProt O95136); assay: S1PR2 binding assay (competition with radioactively labeled S1P, SpA); conditions: membranes from stable cell line over expressing S1PR2, SpA beads; read-out: S1P2 EC50 (nM), S1PR2 binding EC50
T1 construct: expressed in transfected cells
Protocol: The following assay can be used for determination of S1PR2 binding. The binding assay measures the potential to compete with radioactively labeled S1P for binding to the receptor.
The assay is performed in a96 well plate where the following reagents are added. First 50 μL compound is added into the assay plate, followed by addition of 100 μL ofa mixture consisting of membrane and Scintillation proximity Assay (SpA) beads [mixture consists […] membranes derived from stable cell line over expressing SPR2, 0.5 mg/well Polyvinyltoluene-Wheat Germ-Agglutinin (PVT-WGA) beads (Perkin Elmer, RPNQOO1)]. All components are diluted in assay buffer containing 20 mM Tris pH 7.5; 10 mM MgCl2; 100 mM NaCl; 0.4% BSA FAF; 1 mM Na3VO4) and incubated for 15 min until addition to the assay plate. Subsequently, 50 ul of radioactively labeled S1P is added to the wells (Sphingosine, D-erythro-[3-3H] 1-phosphate; ARC; ART0778). After an incubation for 2 h at room temperature, plates are centrifuged at 2000 rpm during 20 min. Plates are read on a Topcount reader (Perkin Elmer) immediately after centrifugation (readout time, 1 min/well).

[2] = target: T2, human GPCR sphingosine 1-phosphate receptor 2 (Homo sapiens, UniProt O95136); assay: S1PR2 antagonist Ca2+ flux assay; type: cell-based; conditions: antagonist mode, CHO-S1PR2 cells, S1P at EC80, Ca2+ fluorescence; read-out: S1P2 EC50 (nM), S1P2 antagonist EC50
T2 construct: host or cells: CHO
T2 sequence (O95136 whole entry): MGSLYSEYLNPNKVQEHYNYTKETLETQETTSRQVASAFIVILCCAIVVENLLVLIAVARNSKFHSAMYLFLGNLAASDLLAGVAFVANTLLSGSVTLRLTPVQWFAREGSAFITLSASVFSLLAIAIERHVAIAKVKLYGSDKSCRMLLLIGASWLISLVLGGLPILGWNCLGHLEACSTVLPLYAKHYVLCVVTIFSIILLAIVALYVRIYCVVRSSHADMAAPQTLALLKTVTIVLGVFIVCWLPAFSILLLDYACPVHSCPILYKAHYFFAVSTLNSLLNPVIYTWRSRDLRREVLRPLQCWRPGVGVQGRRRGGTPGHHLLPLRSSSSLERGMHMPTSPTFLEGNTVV
Protocol: Triggering of S1PR2 by administration of Sphingosine-1-phosphate leads to a transient increase in intracellular Ca^2+. The Ca^2+ flux assays are measuring the release of Ca^2+ intracellularly by use of a Ca^2+ sensitive fluorescent dye. The assay is firstly run in agonist mode (incubation of compounds alone) to ensure that the Ca^2+ released measured is not caused by the test compound having an agonistic effect. Then the assay is continued in antagonist mode (Sphingosine-1-Phosphate added to incubated medium containing the test compounds).
CHO cells stably overexpressing human GPCR sphingosine 1-phosphate receptor 2 (CHO-S1PR2 Perkin Elmer; ES-594-A) are seeded from a frozen stock in 384 wells sterile microplates (50 μL; 7,500 cells/well) and are incubated overnight at 37° C. and 5% CO2. The next day cells are washed twice with starvation medium (F-12 Ham's medium containing 0.1% BSA (Fatty acid free: FAF)) and left in 25 μL starvation medium for 1 h at 37° C., 5% CO2. After this starvation cells are incubated with 25 μL buffer containing the Ca^2+-sensitive fluorescent dye (0.5 mg Fluo8+125 mg Allura Red in 100 mL of 1% DMSO, in HBSS+20 mM Hepes+5 mM probenecid). The cells are incubated for an additional 1 h after which 10 μL compounds, diluted in HBSS buffer with 20 mM Hepes and 0.1% BSA (FAF), are added to the cells and intracellular Ca2+ changes are immediately measured by reading fluorescence during 3 min (FDSS/pCELL reader). The ratio of the maximal fluorescence over the background fluorescence before compound injection is used to determine compound response.
After readout of the agonist activity, the plates are incubated for 15 min at 37° C. and 5% CO2. Then, cells are stimulated with 10 μL Sphingosine-1-Phosphate (S1P) (Avanti Polar lipids-860492P) at its EC80 concentration. Intracellular Ca2+ changes are immediately measured by reading fluorescence during 3 min (FDSS/pCELL reader). The ratio of the maximal fluorescence over the background fluorescence before compound injection is used to determine compound response.
The obtained ratio's for agonist and antagonist readout were normalized versus vehicle and EC 100 of S1P ascontrols for agonist mode and versus vehicle and […]. From these normalized data EC50 of the compounds are derived.

T1 sequence (O95136 whole entry): as above

| SMILES | EC50 [1] | EC50 [2] |
| --- | --- | --- |
| CC(C)(C)C(O)CNC(=O)Cn1nc(Cc2nc3cc(OCC(F)F)c(C#N)cc3[nH]2)c2ccccc2c1=O (centres unmarked) [Compound 222, 2-[4-[[6-cyano-5-(2,2-difluoroethoxy)-1H-benzimidazol-2-yl]methyl]-1-oxo-phthalazin-2-yl]-N-(2-hydroxy-3,3-dimethylbutyl)acetamide] | 137 nM | 26.1 nM |
| N#Cc1cc2[nH]c(Cc3nn(CC(=O)NCC(F)(F)F)c(=O)c4ccccc34)nc2cc1OCC(F)F [Compound 230, 2-[4-[[6-cyano-5-(2,2-difluoroethoxy)-1H-benzimidazol-2-yl)methyl]-1-oxo-phthalazin-2-yl]-N-(2,2,2-trifluoroethyl)acetamide] | 1950 nM | 408 nM |
| CN(C)C(=O)C1CCN(C(=O)Cn2nc(Cc3nc4cc(OCC(F)F)c(C#N)cc4[nH]3)c3ccccc3c2=O)CC1 [Compound 236, 1-[2-[4-[[6-cyano-5-(2,2-difluoroethoxy)-1H-benzimidazol-2-yl]methyl]-1-oxo-phthalazin-2-yl]acetyl]-N,N-dimethyl-piperidine-4-carboxamide] | 2090 nM | 958 nM |
| O=c1c2ccccc2c(Cc2nc3cc(Cl)c(OC(F)(F)F)cc3[nH]2)nn1CC1CNCCO1 (centres unmarked) [Compound 63, 4-[[5-chloro-6-(trifluoromethoxy)-1H-benzimidazol-2-yl]methyl]-2-(morpholin-2-ylmethyl)phthalazin-1-one] | 1270 nM | 4160 nM |
| O=C(O)Cn1nc(Cc2nc3cc(OCC(F)F)c(F)cc3[nH]2)c2ccccc2c1=O [Compound 130, 2-[4-[[5-(2,2-difluoroethoxy)-6-fluoro-1H-benzimidazol-2-yl]methyl]-1-oxo-phthalazin-2-yl]acetic acid] | 2500 nM | 63.8 nM |
| CS(=O)(=O)NC(=O)Cn1nc(Cc2nc3cc(OCC(F)F)c(F)cc3[nH]2)c2ccccc2c1=O [Compound 248, 2-[4-[[5-(2,2-difluoroethoxy)-6-fluoro-1H-benzimidazol-2-yl]methyl]-1-oxo-phthalazin-2-yl]-N-methylsulfonyl-acetamide] | – | 89.6 nM |
| CC(C(=O)NS(C)(=O)=O)n1nc(Cc2nc3cc(OCC4CC4)c(Cl)cc3[nH]2)c2ccccc2c1=O (centres unmarked) [Compound 246, N-{2-[4-(6-Chloro-5-cyclopropylmethoxy-1H-benzoimidazol-2-ylmethvl)-1-oxo-1H-phthalazin-2-yl]-propionyl}-methanesulfonamide] | 775 nM | 13.6 nM |
| CC(C)(O)C1CCCN(C(=O)Cn2nc(Cc3nc4cc(OCC(F)F)c(C#N)cc4[nH]3)c3ccccc3c2=O)C1 (centres unmarked) [Compound 237, 6-(2,2-difluoroethoxy)-2-[[3-[2-[3-(1-hydroxy-1-methyl-ethyl)-1-piperidyl]-2-oxo-ethyl]-4-oxo-phthalazin-1-yl]methyl]-3H-benzimidazole-5-carbonitrile] | 650 nM | 55.8 nM |
| O=c1c2ccccc2c(Cc2nc3cc(Cl)c(OC(F)(F)F)cc3[nH]2)nn1C1CCC1 [Compound 26, 4-[[5-chloro-6-(trifluoromethoxy)-1H-benzimidazol-2-yl]methyl]-2-cyclobutyl-phthalazin-1-one] | – | 889 nM |
| CC1(COc2cc3nc(Cc4nn(CC(=O)NS(C)(=O)=O)c(=O)c5ccccc45)[nH]c3cc2Cl)CC1 [Compound 250, 2-[4-[[6-chloro-5-[(1-methylcyclopropyl)methoxy]-1H-benzimidazol-2-yl]methyl]-1-oxo-phthalazin-2-yl]-N-methylsulfonyl-acetamide] | – | 9.39 nM |
| Cc1cccc2c(=O)n(CC(=O)N3CCOCC3)nc(Cc3nc4cc(OCC(F)F)c(C#N)cc4[nH]3)c12 [Compound 66, 6-(2,2-difluoroethoxy)-2-[[8-methyl-3-(2-morpholino-2-oxo-ethyl)-4-oxo-phthalazin-1-yl]methyl]-3H-benzimidazole-5-carbonitrile] | 57.1 nM | 18.9 nM |
| CC(C)(C)NC(=O)Cn1nc(Cc2nc3cc(Cl)c(OC(F)(F)F)cc3[nH]2)c2c(c1=O)CCCC2 [Compound 147] | 1090 nM | 1380 nM |
| CCOc1ccc2nn(Cc3nn(CC(=O)O)c(=O)c4ccccc34)cc2c1Cl [Compound 254, 2-[4-[(4-chloro-5-ethoxy-indazol-2-yl)methyl]-1-oxo-phthalazin-2-yl]acetic acid] | – | ≥ 19900 nM |
| N#Cc1cc2[nH]c(Cc3nn(CC(=O)N4CCOCC4)c(=O)c4ccccc34)nc2c(Cl)c1OCC(F)F [Compound 53, 7-chloro-6-(2,2-difluoroethoxy)-2-[[3-(2-morpholino-2-oxo-ethyl)-4-oxo-phthalazin-1-yl]methyl]-3H-benzimidazole-5-carbonitrile] | – | 2360 nM |
| N#Cc1cc2[nH]c(Cc3nn(CC(=O)N4CCN(CCO)CC4)c(=O)c4ccccc34)nc2cc1OCC(F)F [Compound 225, 6-(2,2-difluoroethoxy)-2-[[3-[2-[4-(2-hydroxyethyl)piperazin-1-yl]-2-oxo-ethyl]-4-oxo-phthalazin-1-yl]methyl]-3H-benzimidazole-5-carbonitrile] | – | 388 nM |
| O=c1c2ccccc2c(Cc2nc3cc(Cl)c(OC(F)(F)F)cc3[nH]2)nn1CC1CCCCO1 (centres unmarked) [Compound 35, 4-[[6-chloro-5-(trifluoromethoxy)-1H-benzimidazol-2-yl]methyl]-2-(tetrahydropyran-2-ylmethyl)phthalazin-1-one] | 5410 nM | – |
| O=c1c2ccccc2c(Cc2nc3cc(Cl)c(OC(F)(F)F)cc3[nH]2)nn1C1CCCC1 [Compound 24, 4-[[5-chloro-6-(trifluoromethoxy)-1H-benzimidazol-2-yl]methyl]-2-cyclopentyl-phthalazin-1-one] | 8450 nM | – |
| CS(=O)(=O)NC(=O)Cn1nc(Cc2nc3cc(OCC4(C#N)CC4)c(Cl)cc3[nH]2)c2ccccc2c1=O [Compound 249, 2-[4-[[6-chloro-5-[(1-cyanocyclopropyl)methoxy]-1H-benzimidazol-2-yl]methyl]-1-oxo-phthalazin-2-yl]-N-methylsulfonyl-acetamide] | – | 10.2 nM |
| CCOc1cc2[nH]c(Cc3nn(CC(=O)O)c(=O)c4ccccc34)nc2cc1C#N [Compound 138, 2-[4-[(5-cyano-6-ethoxy-1H-benzimidazol-2-yl)methyl]-1-oxo-phthalazin-2-yl]acetic acid] | – | 45 nM |
| CC(C)(C)C(=O)Cn1nc(Cc2nc3cc(Cl)c(OC(F)(F)F)cc3[nH]2)c2ccccc2c1=O [Compound 44, 4-[[6-chloro-5-(trifluoromethoxy)-1H-benzimidazol-2-yl]methyl]-2-(3,3-dimethyl-2-oxo-butyl)phthalazin-1-one] | – | 2090 nM |
| O=C(Cn1nc(Cc2nc3cc(OCC(F)F)c(Cl)cc3[nH]2)c2c(C3CC3)cccc2c1=O)N1CCOCC1 [Compound 48, 4-[[6-chloro-5-(2,2-difluoroethoxy)-1H-benzimidazol-2-yl]methyl]-5-cyclopropyl-2-(2-morpholino-2-oxo-ethyl)phthalazin-1-one] | – | 98.4 nM |
| CCOc1ccc2cn(Cc3nn(CC(=O)O)c(=O)c4ccccc34)nc2c1Cl [compound 22, 2-[4-[(7-chloro-6-ethoxy-indazol-2-yl)methyl]-1-oxo-phthalazin-2-yl]acetic acid] | – | ≥ 19900 nM |
| N#Cc1cc2[nH]c(Cc3nn(CC(=O)N4CCC(N5CCOCC5)CC4)c(=O)c4ccccc34)nc2cc1OCC(F)F [Compound 238, 6-(2,2-difluoroethoxy)-2-[[3-[2-(4-morpholino-1-piperidyl)-2-oxo-ethyl]-4-oxo-phthalazin-1-yl]methyl]-3H-benzimidazole-5-carbonitrile] | 5240 nM | – |
